ChEMBL document CHEMBL3045832, “3-Aryl-2-{4-[4-(2,4-dioxothiazolidin-5-ylmethyl)phenoxy]-phenyl}-acrylic acid alkyl ester: synthesis and antihyperglycemic evaluation” (2011)

Assays:
Assay type in all cases: functional
Set-up in all cases: scale not given: the % may be the effect or the level left
Rattus norvegicus [1] = assay: Antihyperglycemic activity in streptozotocin-induced Rattus norvegicus Wistar (rat) diabetic model assessed as reduction in plasma glucose level at 25 umol/kg, po for 15 measured after treatment
Rattus norvegicus [2] = assay: Antihyperglycemic activity in streptozotocin-induced Rattus norvegicus Wistar (rat) diabetic model assessed as reduction in plasma glucose level at 25 umol/kg, po for 9 weeks measured at 10 day
Rattus norvegicus [3] = assay: Antihyperglycemic activity in streptozotocin-induced Rattus norvegicus Wistar (rat) diabetic model assessed as reduction in plasma glucose level at 15 umol/kg, po for 9 weeks measured on day 7
Rattus norvegicus [4] = assay: Antihyperglycemic activity in streptozotocin-induced Rattus norvegicus Wistar (rat) diabetic model assessed as reduction in plasma glucose level at 15 umol/kg, po for 9 weeks measured at 10 day
Rattus norvegicus [5] = assay: Antihyperglycemic activity in streptozotocin-induced Rattus norvegicus Wistar (rat) diabetic model assessed as reduction in plasma glucose level at 20 umol/kg, po for 9 weeks measured at 3 day
Rattus norvegicus [6] = assay: Antihyperglycemic activity in streptozotocin-induced Rattus norvegicus Wistar (rat) diabetic model assessed as reduction in plasma glucose level at 30 umol/kg, po for 9 weeks measured on day 7
Rattus norvegicus [7] = assay: Antihyperglycemic activity in streptozotocin-induced Rattus norvegicus Wistar (rat) diabetic model assessed as reduction in plasma glucose level at 20 umol/kg, po for 9 weeks measured at 15 day
Rattus norvegicus [8] = assay: Antihyperglycemic activity in streptozotocin-induced Rattus norvegicus Wistar (rat) diabetic model assessed as reduction in plasma glucose level at 30 umol/kg, po for 9 weeks measured at 15 day
Rattus norvegicus [9] = assay: Antihyperglycemic activity in streptozotocin-induced Rattus norvegicus Wistar (rat) diabetic model assessed as reduction in plasma glucose level at 30 umol/kg, po for 9 weeks measured at 3 day
Rattus norvegicus [10] = assay: Antihyperglycemic activity in streptozotocin-induced Rattus norvegicus Wistar (rat) diabetic model assessed as reduction in plasma glucose level at 25 umol/kg, po for 9 weeks measured at 3 day
Rattus norvegicus [11] = assay: Antihyperglycemic activity in streptozotocin-induced Rattus norvegicus Wistar (rat) diabetic model assessed as reduction in plasma glucose level at 15 umol/kg, po for 9 weeks measured at 15 day
Rattus norvegicus [12] = assay: Antihyperglycemic activity in streptozotocin-induced Rattus norvegicus Wistar (rat) diabetic model assessed as reduction in plasma glucose level at 20 umol/kg, po for 9 weeks measured on day 7
Rattus norvegicus [13] = assay: Antihyperglycemic activity in streptozotocin-induced Rattus norvegicus Wistar (rat) diabetic model assessed as reduction in plasma glucose level at 25 umol/kg, po for 9 weeks measured at 15 day
Rattus norvegicus [14] = assay: Antihyperglycemic activity in streptozotocin-induced Rattus norvegicus Wistar (rat) diabetic model assessed as reduction in plasma glucose level at 15 umol/kg, po for 9 weeks measured at 3 day
Rattus norvegicus [15] = assay: Antihyperglycemic activity in streptozotocin-induced Rattus norvegicus Wistar (rat) diabetic model assessed as reduction in plasma glucose level at 20 umol/kg, po for 9 weeks measured at 10 day
Rattus norvegicus [16] = assay: Antihyperglycemic activity in streptozotocin-induced Rattus norvegicus Wistar (rat) diabetic model assessed as reduction in plasma glucose level at 25 umol/kg, po for 9 weeks measured on day 7
Rattus norvegicus [17] = assay: Antihyperglycemic activity in streptozotocin-induced Rattus norvegicus Wistar (rat) diabetic model assessed as reduction in plasma glucose level at 30 umol/kg, po for 9 weeks measured at 10 day

## CCOC(=O)/C(=C/c1ccc(OC)c(OC)c1)c1ccc(Oc2ccc(CC3SC(=O)NC3=O)cc2)cc1 (stereo not given)
Rattus norvegicus [1]
  Activity: 37.15%

## CCOC(=O)/C(=C/c1ccc(Br)cc1)c1ccc(Oc2ccc(CC3SC(=O)NC3=O)cc2)cc1 (stereo not given)
Rattus norvegicus [1]
  Activity: 13.63%

## CCCOC(=O)/C(=C/c1ccc(Br)cc1)c1ccc(Oc2ccc(CC3SC(=O)NC3=O)cc2)cc1 (stereo not given)
Rattus norvegicus [1]
  Activity: 13.42%

## COC(=O)/C(=C/c1ccccc1)c1ccc(Oc2ccc(CC3SC(=O)NC3=O)cc2)cc1 (stereo not given)
Rattus norvegicus [1]
  Activity: 10.74%

## CCOC(=O)/C(=C/c1ccccc1)c1ccc(Oc2ccc(CC3SC(=O)NC3=O)cc2)cc1 (stereo not given)
Rattus norvegicus [1]
  Activity: 9.8%

## CCCOC(=O)/C(=C/c1ccccc1)c1ccc(Oc2ccc(CC3SC(=O)NC3=O)cc2)cc1 (stereo not given)
Rattus norvegicus [1]
  Activity: 8.6%

## COC(=O)/C(=C/c1ccc(OC)cc1)c1ccc(Oc2ccc(CC3SC(=O)NC3=O)cc2)cc1 (stereo not given)
Rattus norvegicus [1]
  Activity: 16.3%

## CCOC(=O)/C(=C/c1ccc(OC)cc1)c1ccc(Oc2ccc(CC3SC(=O)NC3=O)cc2)cc1 (stereo not given)
Rattus norvegicus [1]
  Activity: 14.61%

## CCCOC(=O)/C(=C/c1ccc(OC)cc1)c1ccc(Oc2ccc(CC3SC(=O)NC3=O)cc2)cc1 (stereo not given)
Rattus norvegicus [1]
  Activity: 13%

## COC(=O)/C(=C/c1ccc(OC)cc1OC)c1ccc(Oc2ccc(CC3SC(=O)NC3=O)cc2)cc1 (stereo not given)
Rattus norvegicus [1]
  Activity: 46.13%

## CCOC(=O)/C(=C/c1ccc(OC)cc1OC)c1ccc(Oc2ccc(CC3SC(=O)NC3=O)cc2)cc1 (stereo not given)
Rattus norvegicus [1]
  Activity: 46.03%

## CCCOC(=O)/C(=C/c1ccc(OC)cc1OC)c1ccc(Oc2ccc(CC3SC(=O)NC3=O)cc2)cc1 (stereo not given)
Rattus norvegicus [1]
  Activity: 45.91%

## COC(=O)/C(=C/c1ccc(OC)c(OC)c1)c1ccc(Oc2ccc(CC3SC(=O)NC3=O)cc2)cc1 (stereo not given)
Rattus norvegicus [1]
  Activity: 38.11%

## CCCOC(=O)/C(=C/c1ccc(OC)c(OC)c1)c1ccc(Oc2ccc(CC3SC(=O)NC3=O)cc2)cc1 (stereo not given)
Rattus norvegicus [1]
  Activity: 35.85%

## COC(=O)/C(=C/c1cccc(OC)c1OC)c1ccc(Oc2ccc(CC3SC(=O)NC3=O)cc2)cc1 (stereo not given)
Rattus norvegicus [1]
  Activity: 37.05%

## CCCOC(=O)/C(=C/c1cccc(OC)c1OC)c1ccc(Oc2ccc(CC3SC(=O)NC3=O)cc2)cc1 (stereo not given)
Rattus norvegicus [1]
  Activity: 37.24%
Rattus norvegicus [2]
  Activity: 25.53%
Rattus norvegicus [3]
  Activity: 11.49%
Rattus norvegicus [4]
  Activity: 15.53%
Rattus norvegicus [5]
  Activity: 10.91%
Rattus norvegicus [6]
  Activity: 20.87%
Rattus norvegicus [7]
  Activity: 21.76%
Rattus norvegicus [8]
  Activity: 35.47%
Rattus norvegicus [9]
  Activity: 19.42%
Rattus norvegicus [10]
  Activity: 18.06%
Rattus norvegicus [11]
  Activity: 18.47%
Rattus norvegicus [12]
  Activity: 14.56%
Rattus norvegicus [13]
  Activity: 37.24%
Rattus norvegicus [14]
  Activity: 8.38%
Rattus norvegicus [15]
  Activity: 17.26%
Rattus norvegicus [16]
  Activity: 21.34%
Rattus norvegicus [17]
  Activity: 24.68%

## COC(=O)/C(=C/c1ccc(O)cc1)c1ccc(Oc2ccc(CC3SC(=O)NC3=O)cc2)cc1 (stereo not given)
Rattus norvegicus [1]
  Activity: 18.81%

## CCOC(=O)/C(=C/c1ccc(O)cc1)c1ccc(Oc2ccc(CC3SC(=O)NC3=O)cc2)cc1 (stereo not given)
Rattus norvegicus [1]
  Activity: 18.16%

## CCCOC(=O)/C(=C/c1ccc(O)cc1)c1ccc(Oc2ccc(CC3SC(=O)NC3=O)cc2)cc1 (stereo not given)
Rattus norvegicus [1]
  Activity: 17.48%

## COC(=O)/C(=C/c1ccc([N+](=O)[O-])cc1)c1ccc(Oc2ccc(CC3SC(=O)NC3=O)cc2)cc1 (stereo not given)
Rattus norvegicus [1]
  Activity: 13.26%

## CCOC(=O)/C(=C/c1ccc([N+](=O)[O-])cc1)c1ccc(Oc2ccc(CC3SC(=O)NC3=O)cc2)cc1 (stereo not given)
Rattus norvegicus [1]
  Activity: 13.4%

## CCCOC(=O)/C(=C/c1ccc([N+](=O)[O-])cc1)c1ccc(Oc2ccc(CC3SC(=O)NC3=O)cc2)cc1 (stereo not given)
Rattus norvegicus [1]
  Activity: 12.45%

## COC(=O)/C(=C/c1ccc(Br)cc1)c1ccc(Oc2ccc(CC3SC(=O)NC3=O)cc2)cc1 (stereo not given)
Rattus norvegicus [1]
  Activity: 15.58%

## CN(CCOc1ccc(CC2SC(=O)NC2=O)cc1)c1ccccn1 (stereo not given) [ROSIGLITAZONE]
Rattus norvegicus [1]
  Activity: 56.73%
